Like-named read-outs stand apart in the source and are kept apart here.
Assays:
Test in all cases: Post-emergence test/greenhouse, % damage after three weeks
Type in all cases: in vivo
Lolium perenne = tested on: Lolium perenne
Bromus secalinus = tested on: Bromus secalinus
Experimental: (§1) The expected action for a given combination of two herbicides can be calculated as follows (cf. COLBY, S. R.: “Calculating synergistic and antagonistic responses of herbicide combinations”, Weeds 15, pages 20-22, 1967):
(§2) If the actual damage exceeds the calculated value, the combination has a superadditive effect, that is to say a synergistic effect.
(§3) Test plants are grown under control conditions (temperature and light).
(§4) Following the spray application, the plant containers are kept in the greenhouse under constant light and temperature conditions.
(§5) After three weeks, the degree of damage to the plants is rated in % damage in comparison to the development of the untreated control.

Veronica persicaria = tested on: Veronica persicaria
Experimental: as §1, §2, §3, §4, §5

Avena fatua = tested on: Avena fatua
From the text: as §1
(§6) If • X=% damage by herbicide A (active compound of the formula I) at an application rate of p kg/ha and • Y=% damage by herbicide B (active compound of the formula II) at an application rate of q kg/ha and • E=the expected damage of herbicides A+B at an application rate of p+q kg/ha, then
as §2
(§7) Test plants are grown under control conditions (temperature and light). Once the plants have reached a height of 5 to 15 cm, the test compound or the combination of test compounds is applied by spraying such that the particular amounts of active compound desired are applied per unit area. The concentration of the spray liquor is chosen so that the particular amounts of active compound desired are applied in 500 litres of water/ha.
as §4, §5
(§8) The figures denote: • 0%=no effect (like untreated control) • 100%=total destruction

Setaria viridis = tested on: Setaria viridis
From the text: as §1, §6, §2, §7, §4, §5, §8

Xanthium strumarium = tested on: Xanthium strumarium
From the text: as §1, §6, §2, §7, §4, §5, §8

Chenopodium album = tested on: Chenopodium album
From the text: as §1, §6, §2, §7, §4, §5, §8

Alopecurus myosuroides = tested on: Alopecurus myosuroides
From the text: as §1, §6, §2, §7, §4, §5, §8

Cyperus esculentus = tested on: Cyperus esculentus
From the text: as §1, §6, §2, §7, §4, §5, §8

Matricaria inodora = tested on: Matricaria inodora
From the text: as §1, §6, §2, §7, §4, §5, §8

Cassia tora = conditions: 4 g of ai/ha
Experimental: as §1, §2, §3, §4, §5

Polygonum convolvolus = conditions: 15 g of ai/ha
[1] = Bromus secalinus, post-emergence, 504 h, 30 g of ai/ha, read-out: Bromus secalinus observed

CCS(=O)(=O)Nc1cc(-n2nc(C(F)(F)F)n(C)c2=O)c(F)cc1C(N)=S [HWH 4991]
Lolium perenne observed (Lolium perenne; 30 g of ai/ha): 20% | Lolium perenne observed (Lolium perenne; 60 g of ai/ha): 60% | Bromus secalinus observed (Bromus secalinus; 30 g of ai/ha): 20% | Bromus secalinus observed (Bromus secalinus; 60 g of ai/ha): 30% | Veronica persicaria observed (Veronica persicaria; 30 g of ai/ha): 90%

CC(Cl)CC(=O)Nc1c([N+](=O)[O-])cnn1-c1c(Cl)cc(C(F)F)cc1Cl (stereo not shown) [SLA 5599]
Avena fatua observed (Avena fatua; 30 g of ai/ha): 0% | Avena fatua observed (Avena fatua; 60 g of ai/ha): 0% | Lolium perenne observed (Lolium perenne; 30 g of ai/ha): 0% | Lolium perenne observed (Lolium perenne; 60 g of ai/ha): 30% | Veronica persicaria observed (Veronica persicaria; 30 g of ai/ha): 80%

COc1cc(OC)nc(NC(=O)NS(=O)(=O)N(C)S(C)(=O)=O)n1 [amidosulfuron, N-(4,6-di-methoxypyrimidin-2-yl)-N′—(N-methyl-N-methylsulphonylsulphamoyl)urea, reference compound]
Avena fatua observed (Avena fatua; 8 g of ai/ha): 0% | Avena fatua observed (Avena fatua; 15 g of ai/ha): 0% | Setaria viridis observed (Setaria viridis; 8 g of ai/ha): 0% | Setaria viridis observed (Setaria viridis; 15 g of ai/ha): 30% | pest or weed control at 8 g/ha (Bromus secalinus; Bromus secalinus, post-emergence, 504 h, 8 g of ai/ha, read-out: Bromus secalinus observed): 0%

COC(=O)c1cc(Oc2ccc(Cl)cc2Cl)ccc1[N+](=O)[O-] [bifenox, methyl 5-(2,4-dichlorophenoxy)-2-nitrobenzoate, reference compound]
Avena fatua observed (Avena fatua; 60 g of ai/ha): 10% | Avena fatua observed (Avena fatua; 125 g of ai/ha): 10% | Avena fatua observed (Avena fatua; 250 g of ai/ha): 10% | Xanthium strumarium observed (Xanthium strumarium; 60 g of ai/ha): 60% | Xanthium strumarium observed (Xanthium strumarium; 125 g of ai/ha): 60% | Xanthium strumarium observed (Xanthium strumarium; 250 g of ai/ha): 70% | pest or weed control at 60 g/ha (Bromus secalinus; Bromus secalinus, post-emergence, 504 h, 60 g of ai/ha, read-out: Bromus secalinus observed): 0% | pest or weed control at 125 g/ha (Bromus secalinus; Bromus secalinus, post-emergence, 504 h, 125 g of ai/ha, read-out: Bromus secalinus observed): 0% | pest or weed control at 250 g/ha (Bromus secalinus; Bromus secalinus, post-emergence, 504 h, 250 g of ai/ha, read-out: Bromus secalinus observed): 10%

N#Cc1cc(Br)c(O)c(Br)c1 [bromoxynil, 3,5-dibromo-4-hydroxybenzonitrile, reference compound]
Activity against Chenopodium album (%) (Chenopodium album; 250 g of a.i./ha): 80%

CCOC(=O)C(Cl)Cc1cc(-n2nc(C)n(C(F)F)c2=O)c(F)cc1Cl (stereo not shown) [carfentrazone-ethyl, 2-(4-chloro-2-fluoro-5-(2-chloro-2-ethoxycarbonylethyl)phenyl)-4-difluoromethyl-5-methyl-2,4-dihydro-3H-1,2,4-triazol-3-one, reference compound]
Chenopodium album observed (Chenopodium album; 2 g of ai/ha): 0% | Chenopodium album observed (Chenopodium album; 4 g of ai/ha): 30% | Chenopodium album observed (Chenopodium album; 8 g of ai/ha): 50% | Alopecurus myosuroides observed (Alopecurus myosuroides; 8 g of ai/ha): 0% | Cyperus esculentus observed (Cyperus esculentus; 4 g of ai/ha): 0% | Cyperus esculentus observed (Cyperus esculentus; 8 g of ai/ha): 30%

COc1c(Cl)ccc(Cl)c1C(=O)O [dicamba, 3,6-dichloro-2-methoxybenzoic acid, reference compound]
Alopecurus myosuroides observed (Alopecurus myosuroides; 30 g of ai/ha): 0% | Alopecurus myosuroides observed (Alopecurus myosuroides; 60 g of ai/ha): 0% | Cyperus esculentus observed (Cyperus esculentus; 30 g of ai/ha): 0% | Cyperus esculentus observed (Cyperus esculentus; 125 g of ai/ha): 0% | Veronica persicaria observed (Veronica persicaria; 60 g of ai/ha): 40%

C[C@@H](Oc1ccc(Cl)cc1Cl)C(=O)O [dichlorprop-P, (R)-2-(2,4-dichlorophen-oxy)propanoic acid, reference compound]
Avena fatua observed (Avena fatua; 125 g of ai/ha): 0% | Avena fatua observed (Avena fatua; 250 g of ai/ha): 10% | Matricaria inodora observed (Matricaria inodora; 60 g of ai/ha): 0% | Matricaria inodora observed (Matricaria inodora; 125 g of ai/ha): 0% | Matricaria inodora observed (Matricaria inodora; 250 g of ai/ha): 0% | Alopecurus myosuroides observed (Alopecurus myosuroides; 60 g of ai/ha): 0% | Alopecurus myosuroides observed (Alopecurus myosuroides; 125 g of ai/ha): 0% | Alopecurus myosuroides observed (Alopecurus myosuroides; 250 g of ai/ha): 20%

O=C(Nc1ccc(F)cc1F)c1cccnc1Oc1cccc(C(F)(F)F)c1 [diflufenican, N-(2,4-di-fluorophenyl)-2-(3-trifluoromethylphenoxy)pyridine-3-carboxamide, reference compound]
Avena fatua observed (Avena fatua; 125 g of ai/ha): 50% | Alopecurus myosuroides observed (Alopecurus myosuroides; 30 g of ai/ha): 50% | Alopecurus myosuroides observed (Alopecurus myosuroides; 60 g of ai/ha): 50% | Alopecurus myosuroides observed (Alopecurus myosuroides; 125 g of ai/ha): 70% | pest or weed control at 30 g/ha (Bromus secalinus; [1]): 10%

COc1ncc(F)c2nc(S(=O)(=O)Nc3c(F)cccc3F)nn12 [florasulam]
Cassia tora observed (Cassia tora): 0% | Bromus secalinus observed (Bromus secalinus; 2 g of ai/ha): 30% | Bromus secalinus observed (Bromus secalinus; 4 g of ai/ha): 30% | Veronica persicaria observed (Veronica persicaria; 4 g of ai/ha): 70%

CNC1=C(c2cccc(C(F)(F)F)c2)C(=O)C(c2ccccc2)O1 (stereo not shown) [flurtamone]
Matricaria inodora observed (Matricaria inodora; 30 g of ai/ha): 30% | pest or weed control at 60 g/ha (Bromus secalinus; Bromus secalinus, post-emergence, 504 h, read-out: Bromus secalinus observed): 30%

CS(=O)(=O)c1cc(C(F)(F)F)ccc1C(=O)c1cnoc1C1CC1 [isoxaflutole]
Matricaria inodora observed (Matricaria inodora; 4 g of ai/ha): 70% | Alopecurus myosuroides observed (Alopecurus myosuroides; 2 g of ai/ha): 0% | Alopecurus myosuroides observed (Alopecurus myosuroides; 4 g of ai/ha): 0% | pest or weed control at 2 g/ha (Bromus secalinus; Bromus secalinus, post-emergence, 504 h, 2 g of ai/ha, read-out: Bromus secalinus observed): 0% | pest or weed control at 4 g/ha (Bromus secalinus; Bromus secalinus, post-emergence, 504 h, 4 g of ai/ha, read-out: Bromus secalinus observed): 0%

COC(=O)c1ccc(CNS(C)(=O)=O)cc1S(=O)(=O)NC(=O)Nc1nc(OC)cc(OC)n1 [mesosulfuron]
Cyperus esculentus observed (Cyperus esculentus; 8 g of ai/ha): 70% | Cyperus esculentus observed (Cyperus esculentus; 15 g of ai/ha): 70% | Bromus secalinus observed (Bromus secalinus; 8 g of ai/ha): 0%

CS(=O)(=O)c1ccc(C(=O)C2C(=O)CCCC2=O)c([N+](=O)[O-])c1 [mesotrione]
Alopecurus myosuroides observed (Alopecurus myosuroides; 15 g of ai/ha): 0% | Alopecurus myosuroides observed (Alopecurus myosuroides; 30 g of ai/ha): 0% | pest or weed control at 15 g/ha (Bromus secalinus; Bromus secalinus, post-emergence, 504 h, 15 g of ai/ha, read-out: Bromus secalinus observed): 0% | pest or weed control at 30 g/ha (Bromus secalinus; [1]): 0% | Polygonum convolvolus observed (Polygonum convolvolus): 50%

CSc1nnc(C(C)(C)C)c(=O)n1N [metribuzin]
Matricaria inodora observed (Matricaria inodora; 30 g of ai/ha): 0% | Xanthium strumarium observed (Xanthium strumarium; 30 g of ai/ha): 40%

— patent US20120309622A1, “HERBICIDES CONTAINING SUBSTITUTED THIEN-3-YL-SULPHONYLAMINIO(THIO)CARBONYL-TRIAZOLIN(ETHI)ONES” (BAYER INTELLECTUAL PROPERTY GMBH, priority 2001, published 2012)
